{"source": "patent US20090098050A1", "about": "“CALCIUM BINDING PEPTIDES” (THE REGENTS OF THE UNVERSITY OF CALIFORNIA, priority 2005, published 2009)", "key": {"[1]": {"experiment": "Binding to calcium oxalate crystals (fluorescence microscopy)", "conditions": "12.5 μM labeled peptide, ten minutes", "procedure": "FIG. 11: Binding of 8DSS peptide to calcium oxalate. Calcium oxalate crystals were exposed to 12.5 μM 8DSS peptide, washed, and imaged by fluorescence microscopy as described in Example 12. […] The brightfield image (top) confirms the presence of crystals, while the fluorescence image of the same region (bottom) confirms that calcium oxalate has no visible fluorescence under these conditions. […] Calcium oxalate was prepared using a previously described method (Wang 2006). Crystals of calcium oxalate were washed with deionized water, then resuspended in a solution containing 50 mM HEPES pH 7.0, 10 mM NaCl, and 12.5 μM 5(6)-carboxyfluorescein-labeled 8DSS peptide. The crystal suspension was incubated at room temperature for ten minutes. The crystals were then harvested by centrifugation, washed twice with a solution of 50 mM HEPES pH 7.0 and 10 mM NaCl, and visualized by fluorescence microscopy as described in Example 11."}, "[2]": {"experiment": "Accumulation of calcium phosphate by immobilized peptide on streptavidin beads", "conditions": "biotin-conjugated peptide on beads, PBS+1 mM CaCl2+1 mM NaHPO4, twelve days", "procedure": "FIG. 3: Interaction of immobilized 8DSS peptide with CaHPO4. Streptavidin-coated polystyrene beads were incubated with biotin-conjugated 8DSS (A and C) or unconjugated biotin (B) and (D). Beads were washed and incubated in a solution of PBS+1 mM CaCl2+1 mM NaHPO4 for twelve days prior to imaging. A. Brightfield micrographs of aggregates of amorphous calcium phosphate that accumulated around DSS-coated beads. All calcium phosphate aggregates of significant size were associated with one or more beads. B. Brightfield image of representative biotin-blocked beads (no DSS peptide). No significant amount of precipitate was associated with these beads. C. Phase-contrast micrograph of a DSS-coated bead with a more ordered accretion of calcium phosphate around its exterior (note the spherical center of the object). These objects were not seen in control samples (biotin-blocked, no DSS peptide), as illustrated in (D). Scale Bars=4 μm. Streptavidin-coated polystyrene beads with an average diameter of 4 μm (Spherotech P.L.C.) were incubated with either biotin-conjugated 8DSS peptide or unconjugated biotin. Beads were washed with PBS to remove unbound peptide (or unbound biotin, in the case of the control beads) and incubated in a solution of PBS+1 mM CaCl2+1 mM NaHPO4 for twelve days prior to imaging. […] All calcium phosphate aggregates of significant size were associated with one or more beads. […]"}, "[3]": {"experiment": "Remineralization of demineralized rat femur (SEM)", "conditions": "peptide one hour, then Quell Desensitizer", "procedure": "FIG. 7: Mineralization of bone. Rat femurs were obtained from sacrificed animals under a shared tissue protocol. Samples were demineralized, rinsed, and ultrasonicated to remove debris. Test samples were treated with 8DSS peptide for one hour, rinsed, remineralized using Quell Desensitizer as described in Example 8, then imaged by Scanning Electron Microscopy. SEM images are shown. Top: untreated sample, showing the surface of the bone completely covered by mineral. Center: demineralized sample, showing Haversian canals exposed by removal of the mineral layer. Bottom: Bone treated with 8DSS and Quell Desensitizer (an aqueous CaCl2/K2HPO4 solution), showing reestablishment of the mineral layer.\nIn order to determine whether the remineralization results observed for tooth tissues can be extended to bone, rat femurs were obtained from sacrificed animals under a shared tissue protocol. Test samples were demineralized with 19% EDTA gel for one hour, followed by immersion in deionized water and ultrasonication to remove excess debris. Test samples were then treated with 8DSS peptide for one hour, rinsed, and half of the samples were remineralized using Quell Desensitizer (Pentron Clinical Technologies, LLC) as described in Example 5. All samples were then prepared for SEM and imaged as in Example 5. […] In the demineralized sample, the Haversian canals were clearly exposed (FIG. 7, middle panel). […]"}}}
{"substance": "8DSS: peptide containing eight Asp-Ser-Ser (DSS) repeats, SEQ ID NO:15 (DSSDSSDSSDSSDSSDSSDSSDSS; calcium binding peptide containing eight DSS repeats, 8DSS)", "values": [{"measurement": "Staining of calcium oxalate aggregates", "setting": "[1]", "value": "significant staining"}, {"measurement": "Calcium phosphate accumulation around peptide-coated beads", "setting": "[2]", "value": "incorporated into large aggregates of precipitated amorphous calcium phosphate"}, {"measurement": "Remineralization of demineralized bone surface", "setting": "[3]", "value": "the mineral surface was restored and occlusion of the canals was observed"}]}
